Like-named read-outs stand apart in the source and are kept apart here.
Legend:
Assay type in all cases: cell-based
Conditions in all cases: alone, 7 days after inoculation
Pyricularia oryzae = tested on: Pyricularia oryzae
Botrytis cinerea = experiment: Microtiterplate test, activity against the grey mold Botrytis cinerea
Phytophthora infestans = tested on: Phytophthora infestans
Leptosphaeria nodorum = experiment: Microtiter test, activity against wheat leaf spots caused by Leptosphaeria nodorum
[1] = tested on: Qol resistant iso-late of Pyrenophora teres; experiment: Microtiter test, activity against Pyrenophora teres

Compound `CN/C(=N\[N+](=O)[O-])NCc1cnc(Cl)s1` [Clothianidin] has an Observed efficacy (Pyricularia oryzae; 63 ppm) of 0.
Compound `N#Cc1ccc(Oc2ccc(C(F)(F)C(O)(Cn3ncnc3S)c3ccc(F)cc3F)nc2)cc1` (stereo not shown) [Compound I, 4-[[6-[2-(2,4-difluorophenyl)-1,1-difluoro-2-hydroxy-3-(5-sulfanyl-1,2,4-triazol-1-yl)propyl]-3-pyridyl]oxy]benzonitrile] has an Observed efficacy (Botrytis cinerea; 4 ppm, 405 nm) of 24, an Observed efficacy (Phytophthora infestans; 4 ppm, 405 nm, 0 = growth as untreated control, 100 = no growth) of 24 and an Observed efficacy (Pyricularia oryzae; 1 ppm, 405 nm) of 0. It also gave an Observed efficacy (Leptosphaeria nodorum; 0.25 ppm) of 0, an Observed efficacy (Leptosphaeria nodorum; 1 ppm) of 20 and an Observed efficacy (Leptosphaeria nodorum; 4 ppm, 405 nm) of 37. For the same compound, the Observed efficacy ([1]; 4 ppm, 405 nm) was 0.
For `N#Cc1c[nH]cc1-c1cccc2c1OC(F)(F)O2` [Fludioxonil], the Observed efficacy (Pyricularia oryzae; 0.016 ppm) was 9, the Observed efficacy (Pyricularia oryzae; 0.063 ppm) was 17 and the Observed efficacy (Pyricularia oryzae; 0.25 ppm) was 26.
`O=[N+]([O-])NC1=NCCN1Cc1ccc(Cl)nc1` [Imidacloprid] was tested, and the Observed efficacy (Pyricularia oryzae; 63 ppm) was 0.
`CC(C)C1CCC(Cc2ccc(Cl)cc2)C1(O)Cn1cncn1` (stereo not shown) [Ipconazol] gave an Observed efficacy (Pyricularia oryzae; 16 ppm) of 0.
`CC(O)(Cn1cncn1)c1ccc(Oc2ccc(Cl)cc2)cc1C(F)(F)F` (stereo not shown) [Mefentrifluconazol] was tested, and the Observed efficacy (Botrytis cinerea; 0.016 ppm) was 0, the Observed efficacy (Phytophthora infestans; 0.016 ppm) was 0 and the Observed efficacy (Leptosphaeria nodorum; 0.016 ppm) was 39. The Observed efficacy ([1]; 0.25 ppm) was 31.
`Cc1cc(C(F)(F)F)nn1CC(=O)N1CCC(c2nc(C3=NOC(c4c(F)cccc4F)C3)cs2)CC1` (stereo not shown) [Oxathiapirolin] gave an Observed efficacy (Pyricularia oryzae; 16 ppm) of 0.
For `COC(=O)N(OC)c1ccccc1COc1ccn(-c2ccc(Cl)cc2)n1` [Pyraclostrobin], the Observed efficacy (Leptosphaeria nodorum; 0.016 ppm) was 42.
`CC(c1ccc(C(F)(F)F)nc1)S(C)(=O)=NC#N` (stereo not shown) [Sulfoxaflor] was tested, and the Observed efficacy (Pyricularia oryzae; 63 ppm) was 0.
With `COC(=O)NC(=S)Nc1ccccc1NC(=S)NC(=O)OC` [Thiophanate methyl] the Observed efficacy (Pyricularia oryzae; 4 ppm) was 0.
With Spinetoram the Observed efficacy (Pyricularia oryzae; 63 ppm) was 0.
